Results on two substances are retold here after article PMC7281206, “Cysteine Cathepsins Inhibition Affects Their Expression and Human Renal Cancer Cell Phenotype” (Cancers, 2020).

*: point of attachment. CH2F = FC*

Series [1] can be described thus: Dispersibility in water. Format: physicochemical.
Series [2] has as its system LAMP-1 in 769-P cells. Nature of the series: LAMP-1 expression (confocal microscopy), 769-P. Format: cell-based, human. The settings on record: 20 μM. Here is the method: Figure 7 Effect of the peptides on LAMP-1 protein expression: (a) Western blotting analysis of LAMP-1 after treatment with PLVE and VLPE (20 μM) for 24, 48, and 72 h in 769-P cells. (b) Confocal microscopy evaluation of LAMP-1 expression after 48 and 72 h of treatment with PLVE and VLPE (20 μM) in 769-P cells. (c) Western blotting analysis of LAMP-1 after treatment with PLVE and VLPE (20 μM) for 24, 48, and 72 h in A498 cells. (d) Confocal microscopy evaluation of LAMP-1 expression after 48 and 72 h of treatment with PLVE and VLPE (20 μM) in A498 cells. Data are represented as mean ± SD of at least three replicates. Significance was calculated through one-way ANOVA followed by Dunnet’s test. * = p < 0.05, ** = p < 0.01, *** = p < 0.001. The cells were treated for 48 and 72 h, then were fixed in 4% PFA/PBS for 15 min and permeabilized in 0.25% Triton®X-100 for 10 min. After blocking the non-specific sites in 2% BSA/PBS-T, the immunofluorescence was performed overnight with primary antibody anti-LAMP-1 (1:100, Abcam, Eugene, OR, USA) incubation, followed by incubation with the appropriate fluorophore-labeled secondary antibody Donkey anti-Rabbit IgG (H+L) ReadyProbes™, Alexa Fluor 488 (1:500; ThermoFisher, USA). The cells were then counterstained with nuclear dye DAPI and visualized under a fluorescent and/or confocal microscope (Olympus BX51, Shinjuku, Tokyo, Japan, and AxioObserver Z1, Zeiss, Oberkochen, Germany) using oil-immersion lenses.

As to Ac-PLVE-CH2F [Ac-PLVE-FMK], the Dispersibility in water result in series [1] was “easily dispersed in water”. Further, the “LAMP-1 expression (confocal)” value in series [2] (48 h) was “increased LAMP-1 expression”; in series [2] (72 h), “the content of LAMP-1 decreased towards control levels”.

Consider Ac-VLPE-CH2F [Ac-VLPE-FMK], for which the Dispersibility in water entry in series [1] is “easily dispersed in water”. In addition, the “LAMP-1 expression (confocal)” value in series [2] (48 h) is listed as “increased LAMP-1 expression”; in series [2] (72 h), “the content of LAMP-1 decreased towards control levels”.
